Data: patent US7462345B2, “Radionuclide labeling of vitamin B12 and coenzymes thereof” (Mayo Foundation for Medical Education and Research, priority 1995, dated 2008)
Values joined by “and” are separate entries in the source; they are usually repeats but may differ in a detail not shown here. Identical values can stand only once.

Columns and labels:
[1] = Biodistribution in mice at 24 hours, gamma well counting; assay type: in vivo, Balb-C mice
[2] = tested on: transplanted sarcoma; assay: Tumor imaging, mice with transplanted sarcoma, gamma well counting; assay type: in vivo; design: Fat activity, gamma well counting / Muscle activity, gamma well counting: unit not given here
Text: All images for the in vivo studies were obtained on a GE 500 maxicamera using a LEAP collimator with a 20% window about the 140 keV energy peak of technetium, and a medium energy collimator with a 20% window about the 174 keV and 247 keV energy peaks of Indium. A 256×256 matrix with a dedicated pinnacle computer system was used to collect and analyze the data.

[3] = Gastrointestinal absorption after oral administration, modified Schillings test; assay type: in vivo, mice; design: Kidney activity, gamma well counting / Liver activity, gamma well counting / Pancreas activity, gamma well counting / Heart activity, gamma well counting / Spleen activity, gamma well counting: unit not given here
Method: B. Gastrointestinal Absorption: Methylcobalamin-b-(4-aminobutyl)-DTPA and DTPA alone were labeled as described above, with the exception that the 3 mCi Indium/300 μg/100 μl normal saline solutions were not diluted. […] The mice were sacrificed at 24 hrs, dissected, and studied as described above.
A modified Schillings test was performed on two mice. Specifically, each mouse received via subcutaneous and intraperitoneal administration, a 1000 μg loading dose of non-labeled methylcobalamin-b-(4-aminobutyl)amide-DTPA analogue. At 24 hrs, the mice were fed 2-3 drops of Indium-labeled methylcobalamin-b-(4-aminobutyl)amide-DTPA-complex. Urine and feces were collected from the three groups of mice after oral administration. The mice were sacrificed at 24 hours after ingestion of tracer and images and biodistribution data were obtained at that time.

[4] = 500 μCi intraperitoneal, 24 hours, mice 1-6
[5] = 500 μCi subcutaneously, mice 7-12
[6] = 500 μCi intraperitoneal, 24 hours, tumor mice 19-24
[7] = approximately 100 μCi tailvein injection, tumor mice 25-30
[8] = approximately 30 μCi orally, 24 hrs, mice 13-18
[9] = approximately 30 μCi orally, 24 hrs, mice 13-18, BKG = background

| Structure (SMILES) | Fat activity, gamma well counting [1, 4] | Heart activity, gamma well counting [1, 4] | Liver activity, gamma well counting [1, 4] | Lung activity, gamma well counting [1, 4] | Pancreas activity, gamma well counting [1, 4] | Heart activity, gamma well counting [1, 5] | Kidney activity, gamma well counting [1, 5] | Liver activity, gamma well counting [1, 5] | Lung activity, gamma well counting [1, 5] | Pancreas activity, gamma well counting [1, 5] | Heart activity, gamma well counting [2, 6] | Kidney activity, gamma well counting [2, 6] | Pancreas activity, gamma well counting [2, 6] | Tumor activity, gamma well counting [2, 6] | Heart activity, gamma well counting [2, 7] | Lung activity, gamma well counting [2, 7] | Kidney activity, gamma well counting [3, 8] | Liver activity, gamma well counting [3, 8] | Pancreas activity, gamma well counting [3, 8] | Fat activity, gamma well counting [3, 9] | also measured |
| --- | --- | --- | --- | --- | --- | --- | --- | --- | --- | --- | --- | --- | --- | --- | --- | --- | --- | --- | --- | --- | --- |
| O=C([O-])CN(CCN(CC(=O)[O-])CC(=O)[O-])CCN(CC(=O)[O-])CC(=O)[O-].[111In+3].[H+].[H+] [DTPA-^111In] | 12.6 and 19.5 and 18.8 | 10.3 and 6.9 and 12.5 | 56.9 and 41.5 and 66.1 | 6.2 and 6.0 and 10.5 | 13.4 and 13.0 and 14.1 | 5.6 and 5.0 and 4.8 | 119.4 and 117.3 and 110.1 | 24.0 and 25.5 and 23.2 | 5.4 and 5.3 and 5.0 | 6.0 and 6.7 and 5.9 | 5.0 and 8.0 and 9.7 | 116.5 and 180.7 and 231.2 | 7.1 and 11.3 and 13.9 | 52.8 and 69.3 and 73.1 | 0.94 and 0.61 and 0.85 | 1.7 and 0.87 and 0.93 | 0.64 and 0.54 and 0.59 | 0.28 and 0.21 and 0.30 | 0.93 and 0.96 and 0.61 | <BKG | Muscle activity, gamma well counting [1, 4]: 5.4 and 5.6 and 5.0; Spleen activity, gamma well counting [1, 5]: 19.5 and 19.0 and 18.1; activity per organ or tissue sample, times less when compared to the methyl and adenosylcobalamin analogs ([1]; mouse, in vivo): 5-12 times; Fat activity, gamma well counting [2, 6]: 13.7 and 17.9 and 19.2; Muscle activity, gamma well counting [2, 6]: 7.2 and 6.4 and 6.8; Fat activity, gamma well counting [2, 7]: 0.93 and 0.75 and 0.79; Kidney activity, gamma well counting [2, 7]: 14.0 and 9.9 and 10.2; Liver activity, gamma well counting [2, 7]: 1.6 and 1.3 and 1.4; Spleen activity, gamma well counting [2, 7]: 1.9 and 1.4 and 1.6; Tumor activity, gamma well counting [2, 7]: 5.0 and 2.8 and 3.4; concentration within the transplanted tumors, times less than that of adenosylcobalamin-DTPA-^111In ([2]; mouse, in vivo): 10-20 times; Spleen activity, gamma well counting [3, 8]: 0.62 and 0.67 and 0.48; Heart activity, gamma well counting [3, 9]: <BKG; Lung activity, gamma well counting [3, 9]: <BKG; Muscle activity, gamma well counting [3, 9]: <BKG; activity in the heart, lungs, muscle, or fat tissue samples ([3]; oral): No activity was detected; radioactivity in urine and stool ([3]; oral): detected in urine and stool by two hours; absorption from the gastrointestinal tract ([3]; oral administration, mice): also absorbed from the gastrointestinal tract, but to a lesser degree |
| CC1=C2N=C(C=C3N=C(C(C)=C4[N-]C(C(CC(N)=O)C4(C)CCC(=O)NCC(C)OP(=O)([O-])OC4C(CO)OC(n5cnc6cc(C)c(C)cc65)C4O)C4(C)N=C1C(CCC(=O)NCCCCNC(=O)CN(CCN(CCN(CC(=O)[O-])CC(=O)[O-])CC(=O)[O-])CC(=O)[O-])C4(C)CC(N)=O)C(CCC(N)=O)C3(C)C)C(CCC(N)=O)C2(C)CC(N)=O.[111In+3].[CH2-]C1OC(n2cnc3c(N)ncnc32)C(O)C1O.[Co+3] (stereo not drawn) [adenosylcobalamin-b-(4-aminobutyl)-amide-DTPA-^111In] | 101.4 and 147.3 and 102.8 | 134.7 and 189.4 and 171.2 | 943.3 and 823.4 and 768.6 | 130.9 and 180.1 and 113.1 | 304.2 and 319.9 and 310.3 | 35.0 and 29.8 and 31.3 | 621.4 and 700.5 and 601.7 | 126.4 and 111.7 and 115.8 | 38.4 and 51.2 and 40.6 | 40.0 and 39.3 and 41.2 | 165.0 and 134.8 and 157.8 | 3886.9 and 3115.6 and 3592.8 | 445.0 and 242.7 and 439.0 | 954.7 and 1426.0 and 1183.1 | – | – | – | – | – | – | Kidney activity, gamma well counting [1, 4]: 3717.5 and 3299.5 and 3462.7; Spleen activity, gamma well counting [1, 4]: 433.1 and 405.3 and 366.8; Liver activity, gamma well counting [2, 6]: 691.0 and 464.8 and 675.0; Lung activity, gamma well counting [2, 6]: 318.8 and 230.0 and 335.2; Spleen activity, gamma well counting [2, 6]: 576.3 and 309.5 and 478.3; tumor activity relative to heart, lungs, fat, and muscle ([2]; IP and IV routes, 24 hours): 4-12 times; tumor activity relative to liver, spleen, and pancreas ([2]; IP and IV routes, 24 hours): two to four times greater activity; uptake within the transplanted sarcoma ([2]; at 24 hours, visually and by gamma well counting): significant amount |
| CC1=C2N=C(C=C3N=C(C(C)=C4[N-]C(C(CC(N)=O)C4(C)CCC(=O)NCC(C)OP(=O)([O-])OC4C(CO)OC(n5cnc6cc(C)c(C)cc65)C4O)C4(C)N=C1C(CCC(=O)NCCCCNC(=O)CN(CCN(CCN(CC(=O)[O-])CC(=O)[O-])CC(=O)[O-])CC(=O)[O-])C4(C)CC(N)=O)C(CCC(N)=O)C3(C)C)C(CCC(N)=O)C2(C)CC(N)=O.[111In+3].[CH3-].[Co+3] (stereo not drawn) [methylcobalamin-b-(4-aminobutyl)-amide-DTPA-^111In] | – | – | – | – | – | – | – | – | – | – | – | – | – | – | 21.7 and 11.4 and 16.9 | 34.4 and 19.9 and 21.3 | 4.3 and 4.1 and 3.1 | 0.82 and 0.80 and 0.73 | 0.75 and 0.76 and 1.1 | <BKG | Muscle activity, gamma well counting [2, 7]: 23.5 and 15.5 and 14.5; Pancreas activity, gamma well counting [2, 7]: 38.4 and 21.3 and 30.3; Heart activity, gamma well counting [3, 9]: 0.54 and 0.50; Muscle activity, gamma well counting [3, 9]: <BKG; activity in the urine by gamma well counting ([3]; oral, mice not flushed with non-labeled methylcobalamin-b-(4-aminobutyl)amide-DTPA): no discernable activity was detected; radioactivity in urine ([3]; oral, mice that underwent the modified Schillings test (flushed)): detectable radioactivity within their urine at one hour |
